Results on 26 molecules are retold here after ChEMBL document CHEMBL1201862, “PubChem BioAssay data set” (2004).

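Method: 48-hour compound exposure of cells in 96-well plates, five concentrations, linear interpolation of endpoints. GI50 is the concentration that inhibits growth by half.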 Active and inactive are the calls of the source. Rule as the data show it: active = GI50 up to about 1.1 µM and inactive = higher. Non-standard residues stand in square brackets, D forms with d. Residues, ends and D or L forms follow the SMILES beside them. ξ: configuration not given here. *: point of attachment. ξHyp = O=C(O)C1CC(O)CN1; Cbz = O=C(OCc1ccccc1)*

Holding throughout (experiment): inhibition of tumour cell growth, NCI panel, 48 h
Experiment [1] has as its system MDA-N.
In experiment [2] the test system is PC-3.
In experiment [3] the test system is T47D.
The test system of experiment [4] is Hs-578T.
For experiment [5], the system named is MDA-MB-231.
The test system of experiment [6] is BT-549.
The subject of experiment [7] is XF498.
In experiment [8] the test system is LXFL 529.
Experiment [9] relates to RXF 631.

For the molecule `CCc1cc2c(cc1CCCC(=O)O)CC1(Cc3ccc(C(=O)O)cc3C1)C2` (stereo not drawn), the GI50 in experiment [1], in experiment [2], in experiment [3], in experiment [4] and in experiment [5] was > 100 µM (inactive) in each case.

As for `COC1C(O)CC(OC2CC(Oc3cc4cc5c(c(O)c4c(O)c3C)C(=O)[C@@H](OC3CC(OC4CC(OC6CC(C)(O)C(OC(C)=O)C(C)O6)C(O)C(C)O4)C(O)C(C)O3)[C@H]([C@H](OC)C(=O)[C@@H](O)[C@@H](C)O)C5)OC(C)C2OC(C)=O)OC1C` (stereo partly drawn) [CHROMOMYCIN], the GI50 is 3.15e-05 µM (active) in experiment [1]; 3.57e-05 µM (active) in [2]; 1.49e-05 µM (active) in experiment [6]; < 0.01 µM (active) in experiment [3]; 2.13e-05 µM (active) in experiment [4]; 3e-05 µM (active) in experiment [5]. The GI50 in experiment [7] was 0.00315 µM (active).

On to `Nc1ncc2c(n1)-c1ccccc1OC2`, for which the GI50 in experiment [7] is > 100 µM (inactive).

For the molecule `Cc1c2c(cc3c1[nH]c1ccccc13)C(c1ccc(F)cc1)=NCC2`, the GI50 in experiment [7] is 1.67 µM (inactive).

In the case of `CC1=CC2c3cccc4[nH]cc(c34)CC2N(C)C1` (stereo not drawn), the GI50 in experiment [7] is 9.75 µM (inactive).

For `CN(C)CCNC(=O)c1cccc2c1C(=O)c1ccccc1C2=O`, in [7], the GI50 was > 100 µM (inactive).

As to `O=C(O)CCSC(=S)Nc1cccc(F)c1`, the GI50 in experiment [8] is 62.2 µM (inactive).

As to `CCCC[C@H]1[C@@H](OCOc2ccccc2)COC(=O)N1[C@H](C)c1ccccc1`, the GI50 in experiment [1] is 11.9 µM (inactive); in experiment [2], 6.1 µM (inactive); in experiment [6], 19.7 µM (inactive); in experiment [3] it was 11.3 µM (inactive); in experiment [4] it was 20.5 µM (inactive); in [5], 13.3 µM (inactive).

As for `Cc1cccc(N2C(=O)C3c4[nH]c5ccc(C)cc5c4C4CCC(C(C)(C)C)CC4C3C2=O)c1` (stereo not drawn), the GI50 in experiment [2] was 13.7 µM (inactive); in experiment [6] it was 27.4 µM (inactive); in experiment [3], 14.3 µM (inactive); in [5] it was 18.8 µM (inactive).

`N#CCCC1(CCC#N)CCCCCCC(CCC#N)(CCC#N)C(O)C1O` (stereo not drawn): the GI50 in [1], in [2] and in [3] was > 100 µM (inactive) in each case.

As to `COc1cccc(N2C(=O)C3c4[nH]c5ccc(C)cc5c4C4CCC(C(C)(C)C)CC4C3C2=O)c1` (stereo not drawn), the GI50 in experiment [1] was > 10 µM (inactive); in experiment [2], 4.43 µM (inactive); in experiment [3] it was 7.28 µM (inactive); in experiment [4], 3.19 µM (inactive); in experiment [5], 5.48 µM (inactive).

Turning to `COc1cc(C(C)O)c(S(=O)(=O)CC(C)O)nn1` (stereo not drawn), the GI50 in experiment [1], in experiment [6] and in experiment [4] was > 100 µM (inactive) throughout.

Take `O=C(O)C1CCCCN1C(=O)c1ccccc1` (stereo not drawn): the GI50 in experiment [8], in experiment [9] and in experiment [7] was > 100 µM (inactive) in each case.

With `CC1=NN(C(=O)c2cc(Cl)cc([N+](=O)[O-])c2)C(=O)C1/N=N/c1ccccc1C(=O)O` (stereo not drawn), the GI50 in experiment [8] and in experiment [9] was > 100 µM (inactive) throughout.

On to `NC(=O)CNC(=O)C1CC(O)CN1C(=O)OCc1ccccc1` (stereo not drawn) (Cbz-[ξHyp]-Gly-NH2), for which the GI50 in [1], in [2], in [6], in experiment [3], in experiment [4] and in experiment [5] was > 100 µM (inactive) each time.

As for `CC(/C=N/N=C(N)N)=N\N=C(N)N`, the GI50 in experiment [1] is 15.2 µM (inactive); in [2], 232 µM (inactive); in experiment [6], 243 µM (inactive); in [8], 61.9 µM (inactive); in experiment [3], 1.91 µM (inactive); in experiment [4], 33.2 µM (inactive). The GI50 in experiment [5] was 22.6 µM (inactive); in experiment [7], 2.96 µM (inactive).

As for `CCOC(=O)CCc1c(C)c2c(OC(C)=O)cc(OC(C)=O)cc2oc1=O`, the GI50 in experiment [8] is 37.4 µM (inactive).

As for `CCOC(=O)C(O)(NC(=O)c1ccc(F)cc1)C(F)(F)F` (stereo not drawn), the GI50 in experiment [1] was > 100 µM (inactive); in experiment [2], > 100 µM (inactive); in experiment [6], > 100 µM (inactive); in experiment [3], > 100 µM (inactive); in experiment [4], > 100 µM (inactive); in [5], 59.8 µM (inactive).

As for `CCOC(C)OC1CC(n2cc(C)c(=O)[nH]c2=O)OC1CO` (stereo not drawn), the GI50 in experiment [8] and in [7] was > 100 µM (inactive) throughout.

`C/N=C1\S/C(=N\c2ccc(N(C)C)cc2)N1C`: the GI50 in [8] is 40.5 µM (inactive).

On to `CCN(CC)CCOC(=O)c1ccc(N)cc1.CCOC(=O)Nc1ccc(S(=O)(=O)OC)cc1.CCOC(=O)Nc1ccc(S(=O)(=O)OC)cc1.Nc1ccc(C(=O)O)c(O)c1`, for which the GI50 in experiment [8] and in experiment [9] was > 100 µM (inactive) each time.

Turning to `O=C(c1ccccn1)C1(N2CCCCC2)CCCCC1`, the GI50 was > 100 µM (inactive) in experiment [1]; > 100 µM (inactive) in experiment [2]; > 100 µM (inactive) in experiment [6]; 46 µM (inactive) in experiment [3]; 15.5 µM (inactive) in experiment [4]; > 100 µM (inactive) in experiment [5].

Regarding `C[n+]1c2ccccc2c(C(=O)NC(CCCNC(=N)N)C(=O)O)c2ccccc21` (stereo not drawn), the GI50 in [1], in experiment [2], in experiment [6], in experiment [3], in [4] and in experiment [5] was > 100 µM (inactive) in each case.

With `CCC(C)COC(=O)c1ccc(/N=C\c2ccc(/C=N/c3ccc(C(=O)OCC(C)CC)cc3)cc2)cc1` (stereo not drawn), the GI50 in experiment [8] and in experiment [9] was > 100 µM (inactive) throughout.

Turning to `CC1=C[C@]2(CC(C)C3C(CC4(C)C5CCC6C(C)(C)C(=O)CC[C@@]67C[C@@]57CC[C@]34C)O2)OC1=O` (stereo partly drawn), the GI50 in experiment [8] is 7.52 µM (inactive); in [9], 3.54 µM (inactive); in [7] it was 13.9 µM (inactive).

Consider `Cc1ccccc1OCC(COC(=O)Nc1ccccc1)OC(=O)Nc1ccccc1` (stereo not drawn), for which the GI50 in experiment [8] is 45.9 µM (inactive); in experiment [9], 9.93 µM (inactive).
